In this assay the test system is lysozyme. Briefly: Retention of original lysozyme activity after Nektar SCF processing. The assay is classed as biochemical. To be noted: after Nektar SCF processing at 0° C., 100 bar.

Turning to “Experiment 8.1: unconjugated lysozyme subjected to Nektar SCF processing from 20 mg/ml aqueous solution”, the “Retained original (pre-Nektar SCF) activity” value is 105%.

In the case of “Experiment 8.2: conjugate of the protein lysozyme with linear mPEG of 5 kDaltons”, the “Retained original (pre-Nektar SCF) activity” value came to 108%.
